# Assays:
# [1] = biological target: T1, human NPC1L1 (Homo sapiens, UniProt Q9UHC9, T1073A); assay: Fluorescence NPC1L1 binding assay, HEK-293 cells, BODIPY-labeled compound 1; conditions: Human NPC1L1, competition with compound 1; read-out: Ki
# T1 construct: expressed in transfected cells
# T1 sequence (Q9UHC9 22-1332 isoform Q9UHC9-2 T1046A): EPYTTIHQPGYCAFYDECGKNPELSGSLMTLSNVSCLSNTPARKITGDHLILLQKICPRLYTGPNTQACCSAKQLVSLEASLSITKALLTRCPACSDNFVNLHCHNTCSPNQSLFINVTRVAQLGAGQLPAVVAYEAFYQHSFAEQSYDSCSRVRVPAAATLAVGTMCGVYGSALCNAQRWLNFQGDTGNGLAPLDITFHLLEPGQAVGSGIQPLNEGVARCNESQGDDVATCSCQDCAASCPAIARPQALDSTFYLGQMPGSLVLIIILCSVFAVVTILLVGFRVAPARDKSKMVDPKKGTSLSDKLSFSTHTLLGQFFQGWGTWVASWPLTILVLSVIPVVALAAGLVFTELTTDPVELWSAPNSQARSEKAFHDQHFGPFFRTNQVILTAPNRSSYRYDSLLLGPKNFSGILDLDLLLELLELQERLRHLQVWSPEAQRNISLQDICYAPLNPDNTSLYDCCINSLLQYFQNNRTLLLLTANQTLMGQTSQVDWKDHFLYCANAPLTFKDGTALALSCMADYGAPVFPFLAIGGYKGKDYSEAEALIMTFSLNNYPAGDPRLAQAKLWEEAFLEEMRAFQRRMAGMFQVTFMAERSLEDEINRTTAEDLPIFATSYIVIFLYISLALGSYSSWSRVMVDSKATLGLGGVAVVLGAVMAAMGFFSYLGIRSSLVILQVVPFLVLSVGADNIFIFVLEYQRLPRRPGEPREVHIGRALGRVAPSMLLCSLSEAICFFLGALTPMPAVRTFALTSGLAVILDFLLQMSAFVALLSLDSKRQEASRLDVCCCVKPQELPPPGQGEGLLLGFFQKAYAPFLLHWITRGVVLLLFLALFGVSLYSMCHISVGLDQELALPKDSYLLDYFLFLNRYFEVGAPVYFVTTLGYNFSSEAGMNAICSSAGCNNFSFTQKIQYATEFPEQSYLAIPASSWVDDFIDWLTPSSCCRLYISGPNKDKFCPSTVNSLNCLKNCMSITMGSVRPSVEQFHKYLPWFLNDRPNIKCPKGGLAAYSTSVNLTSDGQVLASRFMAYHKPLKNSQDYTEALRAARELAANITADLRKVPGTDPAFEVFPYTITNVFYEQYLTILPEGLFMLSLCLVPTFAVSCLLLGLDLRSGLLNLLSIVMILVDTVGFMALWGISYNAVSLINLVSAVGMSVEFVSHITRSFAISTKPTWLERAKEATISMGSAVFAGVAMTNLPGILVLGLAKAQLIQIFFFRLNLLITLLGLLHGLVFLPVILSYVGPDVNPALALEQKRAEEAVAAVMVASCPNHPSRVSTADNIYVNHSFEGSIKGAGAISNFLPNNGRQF
# [2] = biological target: T2, rat NPC1L1 (Rattus norvegicus, UniProt Q6T3U3, A349V/E317P/G318E/K324N/L297S); assay: as above; conditions: Rat NPC1L1, competition with compound 1; read-out: Ki
# T2 construct: expressed in transfected cells
smiles,measurement,setting,value
"O=C(O)[C@H]1O[C@@H](Oc2ccc([C@@H]3[C@@H](CC[C@H](O)c4ccc(F)cc4)C(=O)N3c3ccc(F)cc3)cc2)[C@H](O)[C@@H](O)[C@@H]1O [compound 4, glucuronidated ezetimibe]",Ki,[1],0.66 µM
same,Ki,[2],0.352 µM

# Reference: patent US8212016B2, “NPC1L1 orthologues” (Schering Corporation, priority 2006, dated 2012)
